These results are taken from patent publication US6743640B2, “Fluorescent polymer-QTL approach to biosensing” (priority 2000, dated 2004).

The assay deals with avidin (Gallus gallus, UniProt P02701). Description: Competitive avidin-biotin fluorescence quench assay with 263 PRU cyanine polymer. As for the experimental part: A preferred embodiment for using a cyanine polymer/QTL approach consists of a competitive assay based on selective quenching of a cyanine polymer solution. For example, a 263 polymer repeat unit (PRU) cyanine polymer can be conveniently used in a fluorescence quench competitive bioassay. A competitive assay involving the avidin-biotin receptor-ligand system was conducted as follows: 500 μl of 0.1 μM of this polymer was added to the filtrate (lower) chamber of each of 3 separate Microcon YM-30 centrifugal filter vials. In each of these devices the filtrate chamber is separated from the retentate (upper) chamber by a 30 kilodalton (KD) nominal molecular weight cutoff (NMWCO) cellulose membrane. This membrane is impermeable to the 66 KD protein avidin but allows the biotin-anthraquinone conjugate to pass. […] Since each avidin has four biotin binding sites, this sub-stoichiometric ratio ensures full binding of all QTL conjugate to avidin. The three retentate chambers were charged with a.) 0.5 μM D-Biotin, b. and c.) 0.8 μM AQS-biotin conjugate complexed with 1.0 μM avidin. The 3 tubes were then each sealed and incubated for 10 minutes, after which time 0.5 μM D-Biotin was added to vial c. […] The fluorescence emission of all three filtrates was then measured at 20.0° C.+/−0.1° C. on a SPEX FluoroMax-3. […]

SMILES strings stand for the structures.

Sequence of avidin (P02701 25-152, species assumed): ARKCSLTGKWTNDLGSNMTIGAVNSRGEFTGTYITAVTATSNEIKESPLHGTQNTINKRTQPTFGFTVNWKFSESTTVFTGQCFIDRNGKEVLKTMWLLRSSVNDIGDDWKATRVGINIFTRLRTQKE

On to `O=C(O)CCCC[C@@H]1SC[C@@H]2NC(=O)N[C@@H]21` [biotin, D-Biotin], for which the “quenching of cyanine polymer after adding competitor to QTL-avidin solution” value (0.8 μM AQS-biotin conjugate with 1.0 μM avidin) is reported as “quenching occurred”. The “quenching of cyanine polymer in filtrate, sample alone” value (sample alone in retentate chamber, 30 KD membrane, 263 PRU polymer 0.1 μM) is given as “no quenching”.
